In patent US4894388A, “Glycosidase inhibitors and use thereof” (priority 1988, dated 1990):

What was measured:
[1] = biological target: T1, lysosomal (acidic) α-D-mannosidase (Homo sapiens, UniProt O00754); test: Inhibition of lysosomal (acidic) α-D-mannosidase, fluorigenic 4-methylumbelliferyl glycoside substrate; format: biochemical; conditions: for inhibition at 1000 µM: 1 mM inhibitor, 0.5 mM substrate, pH 4.0, mean of 2-4 determinations
T1 construct: Post mortem human liver, which had been stored at -20° C; from tissue; host or cells: post mortem human liver, 37,000 g supernatant; concanavalin A-Sepharose fraction
T1 sequence (O00754 50-1011): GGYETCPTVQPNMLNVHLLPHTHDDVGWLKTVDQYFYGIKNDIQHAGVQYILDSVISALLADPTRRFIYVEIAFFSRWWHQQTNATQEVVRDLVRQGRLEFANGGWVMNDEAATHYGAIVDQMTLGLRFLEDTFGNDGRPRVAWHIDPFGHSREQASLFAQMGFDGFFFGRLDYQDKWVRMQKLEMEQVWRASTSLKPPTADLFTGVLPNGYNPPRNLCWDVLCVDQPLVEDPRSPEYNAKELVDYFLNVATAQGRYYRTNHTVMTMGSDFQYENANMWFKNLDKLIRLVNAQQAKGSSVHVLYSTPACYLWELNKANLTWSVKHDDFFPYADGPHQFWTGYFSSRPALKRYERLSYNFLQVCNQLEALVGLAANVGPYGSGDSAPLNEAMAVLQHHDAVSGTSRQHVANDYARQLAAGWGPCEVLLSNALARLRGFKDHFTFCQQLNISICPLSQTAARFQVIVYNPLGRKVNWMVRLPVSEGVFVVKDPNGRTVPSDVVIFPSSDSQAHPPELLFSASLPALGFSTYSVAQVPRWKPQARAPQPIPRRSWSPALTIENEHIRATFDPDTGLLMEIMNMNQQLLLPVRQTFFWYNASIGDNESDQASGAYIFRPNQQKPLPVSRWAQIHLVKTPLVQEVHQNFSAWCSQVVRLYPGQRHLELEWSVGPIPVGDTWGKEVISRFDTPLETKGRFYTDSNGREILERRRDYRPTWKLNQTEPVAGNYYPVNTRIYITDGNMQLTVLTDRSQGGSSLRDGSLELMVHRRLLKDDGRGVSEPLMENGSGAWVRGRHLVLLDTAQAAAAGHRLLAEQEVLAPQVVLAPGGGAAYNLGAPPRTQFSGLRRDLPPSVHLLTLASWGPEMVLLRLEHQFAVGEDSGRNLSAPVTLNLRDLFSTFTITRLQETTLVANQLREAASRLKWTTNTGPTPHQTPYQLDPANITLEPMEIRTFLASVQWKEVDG
Description: (§1) Post mortem human liver, which had been stored at -20° C. until required was homogenized in deionized water (50%, w/v) in a Potter-Elvehjem homogenizer and then centrifuged at 37,000 g for 30 min in an MSE 18 centrifuge. The resultant supernatant was used as the source of enzymic activities.
(§2) The glycosidase activities in an extract of normal human liver were assayed by using the appropriate fluorigenic 4-methylumbelliferyl glycoside substrate (Koch-Light, Haverhill, Suffolk, U.K.) with a concentration of 0.5 mM at the optimal pH of each enzyme [Burditt et al., Clin. Chim. Acta 140, 201-209 (1980)]. Human liver acidic (lysomal) and neutral (cystosolic) α-D-mannosidases were assayed similarly at their pH-optima, of 4.0 and 6.5, respectively, after separation by affinity chromatography on concanavalin A-Sepharose® (Pharmacia Ltd, Milton Keynes, Bucks, U.K.) [Phillips et al., Biochem. J. 153, 579-587 (1976)]. The residual intermediate (Golgi) α-mannosidase II activity in extracts of fibroblasts from a patient with the lysosomal storage disease, mannosidosis, was assayed at pH 5.75 using the synthetic substrate (Burditt et al, Ibid.). The specificity of the inhibitors was determined by assaying the glycosidases in the presence and absence of a 1 mM solution of each compound. The nature of the inhibition and the value of Ki were determined using the Dixon graphical procedure.
(§3) Enzymic activities were measured in the presence and absence of 1 mM inhibitor. Inhibition (%) was calculated as the fraction of activity lost in the presence of inhibitor. The values are means of two to four independent determinations.

[2] = biological target: T2, cytosolic (neutral) α-D-mannosidase (Homo sapiens, UniProt Q9NTJ4); test: Inhibition of cytosolic (neutral) α-D-mannosidase, fluorigenic 4-methylumbelliferyl glycoside substrate; format: biochemical; conditions: for inhibition at 1000 µM: 1 mM inhibitor, 0.5 mM substrate, pH 6.5, mean of 2-4 determinations
T2 construct: Post mortem human liver, which had been stored at -20° C; from tissue; host or cells: post mortem human liver, 37,000 g supernatant; concanavalin A-Sepharose fraction
T2 sequence (Q9NTJ4 1-1040): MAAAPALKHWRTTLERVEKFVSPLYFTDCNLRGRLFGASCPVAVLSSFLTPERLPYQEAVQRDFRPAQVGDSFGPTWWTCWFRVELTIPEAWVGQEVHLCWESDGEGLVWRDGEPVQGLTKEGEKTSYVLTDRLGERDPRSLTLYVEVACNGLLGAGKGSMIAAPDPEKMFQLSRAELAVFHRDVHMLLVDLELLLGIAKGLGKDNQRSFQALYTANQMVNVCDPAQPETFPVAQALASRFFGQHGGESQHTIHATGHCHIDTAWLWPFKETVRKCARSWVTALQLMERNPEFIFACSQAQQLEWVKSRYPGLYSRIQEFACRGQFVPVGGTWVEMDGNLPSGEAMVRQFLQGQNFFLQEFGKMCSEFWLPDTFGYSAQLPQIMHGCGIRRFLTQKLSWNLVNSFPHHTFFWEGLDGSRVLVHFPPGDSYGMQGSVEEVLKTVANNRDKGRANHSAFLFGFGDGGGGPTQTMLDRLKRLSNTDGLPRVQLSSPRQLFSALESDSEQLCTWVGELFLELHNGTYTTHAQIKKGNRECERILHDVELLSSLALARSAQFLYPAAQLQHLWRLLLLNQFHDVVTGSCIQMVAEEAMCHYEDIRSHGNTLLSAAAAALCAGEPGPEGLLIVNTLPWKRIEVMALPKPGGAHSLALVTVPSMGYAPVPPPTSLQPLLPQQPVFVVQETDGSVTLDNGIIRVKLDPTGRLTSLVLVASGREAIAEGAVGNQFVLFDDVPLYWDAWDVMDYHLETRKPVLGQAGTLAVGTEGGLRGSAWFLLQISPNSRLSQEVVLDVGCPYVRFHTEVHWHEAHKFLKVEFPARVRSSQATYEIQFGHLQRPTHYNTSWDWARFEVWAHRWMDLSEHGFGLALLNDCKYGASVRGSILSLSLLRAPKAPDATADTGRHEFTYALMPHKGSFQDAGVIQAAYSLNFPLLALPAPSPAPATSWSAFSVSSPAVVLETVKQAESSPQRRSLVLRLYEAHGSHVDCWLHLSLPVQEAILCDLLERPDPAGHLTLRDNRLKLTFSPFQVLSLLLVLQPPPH
Description: as §1, §2, §3

| inhibition at 1000 µM [1] [%] | inhibition at 1000 µM [2] [%] | SMILES | inhibition of lysosomal α-D-mannosidase (in words) [1] | Ki ([1]; pH optimum of 4.0, Dixon graphical procedure) [µM] | inhibition of neutral cytosolic α-D-mannosidase (in words) ([2]; relative to α-D-mannosidase II) |
| --- | --- | --- | --- | --- | --- |
| 13 | 20 | CN1C[C@@H](O)[C@@H](O)[C@@H]1[C@@H](O)CO [N-methyl DIA, N-methyl-1,4-dideoxy-1,4-imino-L-allitol] |  |  |  |
| 3 | 4 | OC[C@H](O)[C@H]1[C@H](O)[C@H](O)CN1Cc1ccccc1 [N-benzyl DIA, N-benzyl-1,4-dideoxy-1,4-imino-L-allitol] |  |  |  |

| SMILES | inhibition at 1000 µM [1] [%] | inhibition at 1000 µM [2] [%] | inhibition of lysosomal α-D-mannosidase (in words) [1] | Ki ([1]; pH optimum of 4.0, Dixon graphical procedure) [µM] | inhibition of neutral cytosolic α-D-mannosidase (in words) ([2]; relative to α-D-mannosidase II) |
| --- | --- | --- | --- | --- | --- |
| OC[C@H](O)[C@@H]1NC[C@@H](O)[C@H]1O [DIA, 1,4-dideoxy-1,4-imino-L-allitol] | 84 | 61 | good inhibitor | 170 | to a lesser extent |
